Results published in patent US8039430B2 (University of Wollongong, priority 2005, dated 2011).
Where a name gives a salt, the structure may show the parent alone. Read-outs that look alike come from different tables or passages of the source. Square brackets hold non-standard residues; d marks the D form. Peptide text beside a SMILES is read from it. * marks the point of attachment. Fmoc = O=C(OCC1c2ccccc2-c2ccccc21)*; dAllylGly = C=CC[C@@H](N)C(=O)O; AllylGly = C=CC[C@H](N)C(=O)O

Assays:
[1] = tested on: Staphylococcus aureus strain ATCC 6538P; assay: Antibacterial screening (MIC) of compounds of Example 2, S. aureus, Mueller-Hinton broth; assay type: cell-based
Method: Antibacterial Screening Methodology for Compounds of Example 2
(§1) • All assays used the Staphylococcus aureus strain ATCC 6538P. • Assays described in Chapter 5 additionally used the vancomycin-resistant enterococci and vancomycin-sensitive enterococci strains Ef243, Ef449, Ef820 and Ef487. Culture Media • Mueller-Hinton Broth Medium (MHB): MHB (Oxoid CM405) was prepared with final concentrations of […] MgCl2 and 2 μg/mL CaCl2. Culture medium was pre-warmed for approximately 2-3 h at 37° C. before use. • Mueller-Hinton Agar Medium (MHA): MMB containing 1.5% Agar (Merck Agar 1.01614). Maintenance of Bacteria • From a thawed cryovial, the bacteria was streaked onto MHA and the plate incubated overnight at 37° C. • From this plate, 10 cryovials were prepared by looping several colonies into 0.5 mL of 20% glycerol solution. The cryovials were immediately stored at −140° C. Preparation of Seed Cultures • A cryovial was removed from −140° C. storage and thawed at room temperature. • An MHA plate was streaked with a loopful of bacterial suspension and incubated overnight at 37° C. to create a parent plate (P1). • A daughter plate (D1) was streaked from the parent plate and incubated overnight at 37° C. […] The second parent plate (P2) was used to generate two additional daughter plates using the procedure outlined above before being discarded. • Cryovials were used twice to prepare parent plates (P1 and P2) before being discarded. […] A vancomycin control set (triplicate) and a compound negative control set (triplicate) were also included on each plate (FIG. 1). • The inoculated culture medium was incubated at 37° C. for 30 min, with shaking at 130 rpm. • Using a multichannel pipette, the contents of the first row were mixed before 50 μL was transferred to the second row. The pipette tips were changed and the process repeated by 50 μL of the mixed broth solutions in the second row being transferred to the third row. This process was repeated until the last row contained either the diluted test compound or a control (vancomycin or compound-negative). […] Antibacterial Testing of Compounds of Example 2 Introduction
(§2) The specific testing procedures and protocols are outlined in the section “Antibacterial Screening Methodology for the Compounds of Example 2”.
The antibacterial activity results are measured by minimum inhibitory concentration (MIC), which is the lowest concentration of compound necessary to prevent bacterial growth.

E.f820 = assay: Antibacterial screening (MIC) of compounds of Example 2, E.f820; assay type: cell-based, Enterrococci faecium; conditions: Example 2 compounds, fully vancomycin-resistant strain E.f820; for MIC: read-out: Antibacterial activity μg/mL, E.f820
Method: as §1, §2
(§3) Vancomycin was used as the standard/control.

E.f449 = assay: Antibacterial screening (MIC) of compounds of Example 2, E.f449; assay type: cell-based, Enterococcus faecium; conditions: Enterococcus faecium; Example 2 compounds; enterococci strain E.f449; read-out: Antibacterial activity μg/mL, E.f449
Method: as §1, §2, §3

E.f243 = assay: Antibacterial screening (MIC) of compounds of Example 2, E.f243; assay type: cell-based, Enterococcus faecium; conditions: Enterococcus faecium; Example 2 compounds; enterococci strain E.f243; read-out: Antibacterial activity μg/mL, E.f243
Method: as §1, §2, §3

E.f987 = assay: Antibacterial screening (MIC) of compounds of Example 2, E.f987; assay type: cell-based, Enterococcus faecium; conditions: Enterococcus faecium; Example 2 compounds; enterococci strain E.f987; read-out: Antibacterial activity μg/mL, E.f987
[2] = Staphylococcus aureus, ATCC6538P, Example 2 compounds (linear cationic peptides), S. aureus, vancomycin-susceptible strain, read-out: Antibacterial activity μg/mL, S.a
[3] = Staphylococcus aureus, ATCC6538P, 18 h, read-out: Antibacterial activity (MIC μg/mL)
[4] = Staphylococcus aureus, ATCC6538P, Example 2 compounds, S. aureus, 18 h, 37° C., read-out: Antibacterial activity (MIC μg/mL)

## C=CCOc1ccc(C[C@H](NC(=O)[C@@H](CCCNC(=N)N)NC(=O)COc2ccc3ccccc3c2-c2c(OCC=C)ccc3ccccc23)C(=O)OC)cc1.Cl (atropisomer, axis not shown) [Compound 120]
[1]; [2]
  MIC: 3.9 µg/mL
E.f820
  MIC: 62.5 µg/mL
E.f449
  MIC: 62.5 µg/mL
E.f243
  MIC: 62.5 µg/mL
E.f987
  MIC: 62.5 µg/mL

## C=CCOc1ccc(C[C@H](NC(=O)[C@@H](CCCNC(=N)N)NC(=O)COc2ccc3ccccc3c2-c2c(O)ccc3ccccc23)C(=O)OC)cc1.Cl (atropisomer, axis not shown) [Compound 121, Methyl(2S,5R)-2-allyloxybenzyl-3,6-diaza-8-(2-[2′-hydroxy-{1,1′}-(S)-binaphthalen-2-yloxy])-5-(3-[guanidino]propyl)-4,7-dioxooctanoate]
[1]; [2]
  MIC: 7.8 µg/mL
E.f820
  MIC: 125 µg/mL
E.f449
  MIC: 125 µg/mL
E.f243
  MIC: 125 µg/mL
E.f987
  MIC: > 125 µg/mL

## C=CCOc1ccc2ccccc2c1-c1c(OCC(=O)N[C@H](CCCCN)C(=O)N[C@H](CCCNC(=N)N)C(=O)N[C@@H](CC=C)C(=O)OCc2ccccc2)ccc2ccccc12.Cl.Cl (atropisomer, axis not shown) [Compound 132]
[1]; [2]
  MIC: 3.9 µg/mL
E.f820
  MIC: 31.3 µg/mL
E.f449
  MIC: 31.3 µg/mL
E.f243
  MIC: 31.3 µg/mL
E.f987
  MIC: 62.5 µg/mL

## C=CC[C@H](NC(=O)[C@@H](CCCNC(=N)N)NC(=O)[C@@H](CCCCN)NC(=O)COc1ccc2ccccc2c1-c1c(OC)ccc2ccccc12)C(=O)OCc1ccccc1.Cl.Cl (atropisomer, axis not shown) [Compound 135]
[1]; [2]
  MIC: 7.8 µg/mL
E.f820
  MIC: 62.5 µg/mL
E.f449
  MIC: 62.5 µg/mL
E.f243
  MIC: 125 µg/mL
E.f987
  MIC: 125 µg/mL

## C=CC[C@H](NC(=O)[C@@H](CCCNC(=N)N)NC(=O)[C@@H](CCCCN)NC(=O)COc1ccc2ccccc2c1-c1c(O)ccc2ccccc12)C(=O)OCc1ccccc1.Cl.Cl (atropisomer, axis not shown) [Compound 136, Benzyl(2S,5R,8R)-2-allyl-3,6,9-triaza-8-(butylamino)-5-(3-guanidinopropyl)-11-(2-[2′-hydroxy-{1,1′}-(S)-binaphthalen-2-yloxy])-4,7,10-trioxoundecanoate dihydrochloride]
[1]; [2]
  MIC: 7.8 µg/mL
E.f820
  MIC: 62.5 µg/mL
E.f449
  MIC: 62.5 µg/mL
E.f243
  MIC: 125 µg/mL
E.f987
  MIC: 125 µg/mL

## C=CC[C@H](NC(=O)[C@@H](CCCNC(=N)N)NC(=O)[C@@H](CCCCN)NC(=O)COc1ccc2ccccc2c1-c1c(OCCCc2ccccc2)ccc2ccccc12)C(=O)OCc1ccccc1.Cl.Cl (atropisomer, axis not shown) [Compound 137]
[1]; [2]
  MIC: 3.9 µg/mL
E.f820
  MIC: 31.3 µg/mL
E.f449
  MIC: 31.3 µg/mL
E.f243
  MIC: 62.5 µg/mL
E.f987
  MIC: 62.5 µg/mL

## C=CC[C@H](NC(=O)[C@@H](CCCNC(=N)N)NC(=O)[C@@H](CCCCN)NC(=O)COc1ccc2ccccc2c1-c1c(OCCC(C)C)ccc2ccccc12)C(=O)OCc1ccccc1.Cl.Cl (atropisomer, axis not shown) [Compound 138]
[1]; [2]
  MIC: 3.9 µg/mL
E.f820
  MIC: 15.6 µg/mL
E.f449
  MIC: 15.6 µg/mL
E.f243
  MIC: 31.3 µg/mL
E.f987
  MIC: 31.3 µg/mL

## COC(=O)[C@@H]1CC=CCOc2ccc(cc2)C[C@H](NC(C)=O)C(=O)N[C@H](CCCCN)C(=O)N1 [Compound 12, (7S,10R,13S,4E/Z)-13-Acetamido-10-(4-aminobutyl)-8,11-diaza-7-methoxycarbonyl-2-oxa-9,12-dioxo-1(1,4)phenylenacyclotetradecaphane-4-ene hydrochloride]
[1]; [3]
  MIC: 62.5 µg/mL

## COC(=O)[C@@H]1CC=CCOc2ccc(cc2)C[C@@H](NC(C)=O)C(=O)N[C@@H](CCCNC(=N)N)C(=O)N1.Cl [Compound 56, (7S,10S,13R,4E/Z)-13-Acetamido-8,11-diaza-10-(3-[amino{imino}methylamino]propyl)-7-methoxycarbonyl-2-oxa-9,12-dioxo-1(1,4)phenylenacyclotetradecaphane-4-ene]
[1]; [4]
  MIC: 125 µg/mL

## COC(=O)[C@@H]1Cc2ccc(cc2)OCC=CCOc2ccc(cc2)C[C@H](NC(C)=O)C(=O)N[C@H](CCCCN)C(=O)N1.Cl [Compound 65, (10S,13R,16S,4E/Z)-16-Acetamido-13-(4-aminobutyl)-11,14-diaza-10-methoxycarbonyl-2,7-dioxa-12,15-dioxo-1(1,4),8(4,1)-diphenylenecycloheptadecaphane-4-ene]
[1]; [4]
  MIC: 15.6 µg/mL

## C=CC[C@H](NC(=O)[C@@H](CCCNC(=N)N)NC(=O)OCC1c2ccccc2-c2ccccc21)C(=O)OC.Cl [Compound 69, Methyl(2S,5R)-2-allyl-3-aza-5-(9H-9-fluorenylmethyloxycarboxamido)-8-(guanidino)-4-oxooctanoate hydrochloride] (Fmoc-[dR]-[AllylGly]-OMe)
[1]; [4]
  MIC: 125 µg/mL

## C=CC[C@H](NC(=O)[C@H](CCCNC(=N)N)NC(=O)OCC1c2ccccc2-c2ccccc21)C(=O)OC.Cl [Compound 70, Methyl(2S,5S)-2-allyl-3-aza-5-(9H-9-fluorenylmethyloxycarboxamido)-8-(guanidino)-4-oxooctanoate hydrochloride] (Fmoc-Arg-[AllylGly]-OMe)
[1]; [4]
  MIC: 125 µg/mL

## C=CC[C@@H](NC(=O)[C@@H](CCCNC(=N)N)NC(=O)OCC1c2ccccc2-c2ccccc21)C(=O)OC.Cl [Compound 71, Methyl(2R,5R)-2-allyl-3-aza-5-(9H-9-fluorenylmethyloxycarboxamido)-8-(guanidino)-4-oxooctanoate hydrochloride] (Fmoc-[dR]-[dAllylGly]-OMe)
[1]; [4]
  MIC: 125 µg/mL

## C=CC[C@@H](NC(=O)[C@H](CCCNC(=N)N)NC(=O)OCC1c2ccccc2-c2ccccc21)C(=O)OC.Cl [Compound 72, Methyl(2R,5S)-2-allyl-3-aza-5-(9H-9-fluorenylmethyloxycarboxamido)-8-(guanidino)-4-oxooctanoate hydrochloride] (Fmoc-Arg-[dAllylGly]-OMe)
[1]; [4]
  MIC: 125 µg/mL

## C=CCOc1ccc(C[C@H](NC(=O)[C@@H](CCCCN)NC(=O)OCC2c3ccccc3-c3ccccc32)C(=O)OC)cc1.Cl [Compound 73, Methyl(2S,5R)-2-(4-allyloxybenzyl)-9-amino-3-aza-5-(9H-9-fluorenylmethyloxycarboxamido)-4-oxononanoate hydrochloride]
[1]; [4]
  MIC: 31.3 µg/mL

## C=CCOc1ccc(C[C@H](NC(=O)[C@H](CCCCN)NC(=O)OCC2c3ccccc3-c3ccccc32)C(=O)OC)cc1.Cl [Compound 74, Methyl(2S,5S)-2-(4-allyloxybenzyl)-9-amino-3-aza-5-(9H-9-fluorenylmethyloxycarboxamido)-4-oxononanoate hydrochloride]
[1]; [4]
  MIC: 15.6 µg/mL

## C=CCOc1ccc(C[C@H](NC(=O)[C@@H](CCCNC(=N)N)NC(=O)OCC2c3ccccc3-c3ccccc32)C(=O)OC)cc1.Cl [Compound 75]
[1]; Example 2 compounds, S. aureus, best activity named in the text
  MIC: 7.8 µg/mL
[1]; [4]
  MIC: 7.8 µg/mL

## C=CCOc1ccc(C[C@H](NC(C)=O)C(=O)N[C@H](CCCCN)C(=O)N[C@@H](CC=C)C(=O)OC)cc1 [Compound 77, hydrochloride]
[1]; [3]
  MIC: 125 µg/mL

## C=CCOc1ccc(C[C@H](NC(C)=O)C(=O)N[C@H](CCCCN)C(=O)N[C@@H](Cc2ccc(OCC=C)cc2)C(=O)OC)cc1.Cl [Compound 83, Methyl(2S,5R,8S)-2,8-di(4-allyloxybenzyl)-5-(4-aminobutyl)-3,6,9-triaza-4,7,10-trioxoundecanoate hydrochloride]
[1]; [4]
  MIC: 125 µg/mL

## C=CCOc1ccc2ccccc2c1-c1c(OCC(=O)N[C@H](CCCN)C(=O)Nc2cccc(C(=O)NOCc3ccccc3)c2)ccc2ccccc12.Cl [Compound 161]
[1]; Example 2 compounds (linear cationic peptides), S. aureus, vancomycin-susceptible strain
  Antibacterial activity μg/mL, S.a: 15.6 µg/mL
E.f820
  Antibacterial activity μg/mL, E.f820: 62.5 µg/mL

## Methyl(2S,5S)-2-(4-allyloxybenzyl)-3-aza-5-(9H-9-fluorenylmethylcarboxamido)-8-guanidino-4-oxononanoate hydrochloride [Compound 76]
[1]; Example 2 compounds, S. aureus, 18 h, 37° C.
  Antibacterial activity (MIC μg/mL): 15.6 µg/mL
